We go through two substances from patent US20260125425A1, “Carrier Peptide Fragment and Use Thereof” (TOAGOSEI CO., LTD., priority 2022, published 2026).

The test system of the test is HeLa cells. Kind of test: cell membrane permeability in HeLa cells by flow cytometer. The test is classed as cell-based, human. The following applies: 20-hour incubation; for MFI (median fluorescence intensity): 10 µM in culture solution, 0.5% DMSO, 37° C., FL2 detector. Here is the method: As the eukaryotic cells, HeLa cells (established cell strain derived from a human cervical cancer cell) were used and the cell membrane permeability of the sample 1 was evaluated. In Example 1, the prepared sample solution I was used, and in Example 12, the FAM solution was used.
The HeLa cell was cultured in 10% fetal bovine serum (FBS)-containing Dulbecco's modified Eagle's medium (DMEM (Cat No. 044-29765, manufactured by FUJIFILM Wako Pure Chemical Corporation)), which is a culture medium.
The HeLa cell that adhered to a culture plate was cleaned with PBS and then, a 0.25%-trypsin/EDTA solution was added thereto, and incubation was performed for three minutes at 37° C. After the incubation, the aforementioned 10% FBS-containing DMEM was added to deactivate trypsin and then, five-minute centrifugal separation was performed at 150×g to precipitate the cells. After the supernatant generated by the centrifugal separation was removed, the 10% FBS-containing DMEM was added to the precipitate (cell pellet) to prepare a cell suspension of about 2×10^5 cells/mL. The cell suspension was added by 1 mL to a well of a commercially available six-hole (well) plate (manufactured by AGC TECHNO GLASS Co., Ltd.) so as to seed the cell (about 2× 10^5 cells/well). In addition, the 2 mM sample solution 1 was diluted with the 10% FBS-containing DMEM to prepare the sample solution 1 in which the concentration of the sample 1 was 20 μM. […]
Regarding the obtained cells (cell pellet), the cell membrane permeability of the sample 1 was analyzed using a flow cytometer. […]
Using the aforementioned flow cytometer, gating based on forward scatter (FSC) and side scatter (SSC) was performed to set a gate about a cell group to be analyzed, and the fluorescence intensity was measured about the cell group in this gate. […] The fluorescence intensity was measured using a fluorescence detector FL2 of the flow cytometer (optimum detection wavelength around 543 nm) capable of detecting the fluorescence wavelength of FAM. […]

Primed or numbered codes have the meaning given here. FAM″ = C-terminal FAM dye

On to “5 (6)-carboxyfluorescein [Example 2, reference compound]”, for which the “MFI (median fluorescence intensity)” value was 10.6. Take “Ac-RKLAVYWSTYKRSR-FAM (Ac-RKLAVYWSTYKRSR-{FAM″}) [Example 1]”: the “MFI (median fluorescence intensity)” value is given as 14.5. Further, for the setting “10 µM, compared to FAM alone (Example 2)”, the “flow cytometer histogram (FIG. 1), cell membrane permeability” value is on record as “shifted to the right side compared to the histogram according to Example 2”.
